Source: patent US12616674B2, “Anti-fibrotic NEU3 inhibitor compounds and methods of use” (The Texas A&M University System, priority 2019, dated 2026)
Where two headings read alike, the source gives them in different places.

Columns and labels:
[1] = target: T1, recombinant human sialidase NEU3 (Homo sapiens, UniProt Q9UQ49); assay: NEU3-catalyzed L-TGF-β1 activation (TGF-β1 release/concentration assay, active TGF-β1 ELISA); type: biochemical; conditions: recombinant human NEU3, L-TGF-β1, PBS pH 6.9, 2 hours 37° C.
T1 construct: purchased Origene TP316537
T1 sequence (Q9UQ49 1-428): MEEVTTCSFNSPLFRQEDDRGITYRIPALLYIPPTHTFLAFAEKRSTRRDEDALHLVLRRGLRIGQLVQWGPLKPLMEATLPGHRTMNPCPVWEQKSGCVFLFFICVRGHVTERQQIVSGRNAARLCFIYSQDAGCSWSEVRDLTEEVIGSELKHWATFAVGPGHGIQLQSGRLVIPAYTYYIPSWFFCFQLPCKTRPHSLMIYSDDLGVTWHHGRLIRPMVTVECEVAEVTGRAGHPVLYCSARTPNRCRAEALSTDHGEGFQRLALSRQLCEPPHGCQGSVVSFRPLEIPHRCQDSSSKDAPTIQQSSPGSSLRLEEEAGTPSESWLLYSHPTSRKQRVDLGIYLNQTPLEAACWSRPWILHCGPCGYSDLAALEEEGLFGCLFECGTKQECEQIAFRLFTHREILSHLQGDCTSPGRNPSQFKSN
Experimental: To determine if NEU3 can cause latent transforming growth factor-β1 (L-TGF-β1) to release active TGF-β1, 200 ng/ml recombinant human L-TGF-β1 (299-LT/CF, R&D Systems) was incubated with varying concentrations of recombinant human NEU3 (TP316537, Origene) in a total volume of 100 μl of PBS pH 6.9 in a 96-well microplate (651261, Greiner Bio-one, Monroe, NC). The microplates were covered with aluminum foil and incubated at 37° C. for 2 hours. Following incubation, the reaction mixtures were assayed using a TGF-β1 ELISA kit (DY240, R&D Systems) following the manufacturer's protocol with the exception that the reaction mixtures were not processed for acid treatment, so as to measure only active TGF-β1 and not total TGF-β1. The absorbance was read with a SynergyMX plate reader (BioTek, Winooski, VT).
To determine the ability of compounds 1-31 to inhibit human recombinant NEU3 in-vitro, compounds were dissolved in 5 ml water to 20 mM in 15 ml tubes (89039-664, VWR, Radnor, PA), with the exception that 4-hydroxypyridine-2-carboxylic acid, nicotinic acid, and 4-aminopicolinic acid were dissolved in 50 μl DMSO to 2 M, and this was then added to 4.95 ml of water to make a 20 mM stock, and O-(tetrahydro-2H-pyran-2yl) hydroxylamine and salicylic acid were dissolved in 50 μl methanol to 2 M, and this was then added to 4.95 ml of water to make a 20 mM stock. All stocks were stored at 4° C. and used within 2 weeks of preparation. A 10-fold dilution series of the compounds starting at 2 mM were made in PBS pH 6.9 in 1.7 ml clear microtubes (22-281, Genesee Scientific). 100 μl of diluted compound was added to the well of a 96 well plate and then 50 μl of 400 ng/ml recombinant human sialidase NEU3 (TP316537, Origene) in PBS pH 6.9 was added to each well (50 μl PBS pH 6.9 for the control), and the plate was incubated for 30 minutes at 37° C. 50 μl of 800 ng/ml L-TGF-β1 (299-LT/CF, R&D Systems) in PBS pH 6.9 was then added to the well. The plate was covered with aluminum foil and incubated for 2 hours at 37° C., and released active TGF-β1 was assayed as described above.

[2] = test system: NEU3-induced IL-6 production by human PBMC; assay: NEU3-induced extracellular IL-6 accumulation by human PBMC (IL-6 concentration assay); type: cell-based; conditions: NEU3, serum-free medium, 48 hours
Experimental: Human peripheral blood was collected from healthy volunteers who gave written consent and with specific approval from the Texas A&M University human subjects review board. Peripheral blood mononuclear cells (PBMC) were isolated from the blood using Ficoll-Paque density gradient centrifugation (95021-205, GE Healthcare, Cincinnati, OH) following the manufacture's protocol. PBMC were cultured at […] in 96-well flat bottom tissue culture plates (type 62406-081; […] Louis, MO)) in a final volume of 200 μl per well. […] The sialidases were diluted in 100 μl of the same medium the cells were in, and added to 100 μl of cells at 1×10^5 cells/ml to make the total volume in a well 200 μl with 1×10^4 cells/well. The cells were then incubated at 37° C. in a humidified incubator with 5% CO2. The culture supernatants were collected after two or five days and assayed using an IL-6 ELISA kit (430501, Biolegend, San Diego, CA) following the manufacturer's protocol, reading absorbance with a SynergyMX plate reader (BioTek, Winooski, VT). Statistics were analyzed using Prism software (Graphpad, La Jolla, CA). At least three different donors were used for each assay. […] IL-6 in the culture supernatant was then assayed as described above. At least three different donors were used for each assay.

[3] = read-out: IC50, inhibits human NEU3 in the TGF-β1 concentration (release) assay
[4] = read-out: IC50, inhibits human NEU3 in the TGF-β1 concentration assay

| IC50 [1, 3] [nM] | IC50 [1, 4] [nM] | SMILES | IC50 [2] [nM] |
| --- | --- | --- | --- |
| 1800 | – | O=C(O)c1ccccc1O [Compound 15, salicylic acid] | – |
| 130 | – | Cc1ccnc(C(=O)O)c1 [Compound 22, 4-methylpicolinic acid] | 4700 |
| 164000 | – | O=C(O)c1ccc[nH]1 [Compound 30, pyrrole-2-carboxylic acid] | 9500 |
| – | 0.011 | O=C(O)c1cccnc1 [Compound 14, nicotinic acid] | 1500 |
| – | 2.4 | O=C(O)C1CCCCCN1 (stereo not shown) [Compound 31, azepane-2-carboxylic acid] | 35 |
| – | 0.05 | O=C(O)c1cccc(CO)n1 [Compound 17, 6-(hydroxymethyl) picolinic acid] | 38 |
| – | 570 | CCOC(=O)C1=C[C@@H](OC(CC)CC)[C@H](NC(C)=O)[C@@H](N)C1 [Compound 28, oseltamivir, reference compound] | 47000 |
| – | < 0.01 | Cc1cccc(C(=O)O)n1 [Compound 27, 6-methyl-2-pyridinecarboxylic acid] | 4.1 |
| – | 63 | O=C(O)[C@H]1CCCN1 [Compound 29, D-proline] | 4200 |
| 2600 | – | NOC1CCCCO1 (stereo not shown) [Compound 16, O-(tetrahydro-2H-pyran-2-yl)-hydroxylamine] | – |
| 500 | – | CN1CCCCC1C(=O)O (stereo not shown) [Compound 20, 1-methyl-2-piperidine carboxylic acid] | 30 |
| – | 40 | Nc1ccc(C(=O)O)nc1 [Compound 18, 5-aminopyridine-2-carboxylic acid] | 140 |
| – | 40 | O=[N+]([O-])c1ccccn1 [Compound 19, 2-Nitropyridine] | 20 |
| – | 5 | Nc1ccncc1C(=O)O [Compound 23, 4-aminonicotinic acid] | 10000 |
| – | 2 | NC1CCNC(C(=O)O)C1 (stereo not shown) [Compound 25, 2-piperidinecarboxylic acid, 4-amino] | 0.13 |

The remaining lines, values behind:

| SMILES | IC50 [1, 3] [nM] | IC50 [1, 4] [nM] | IC50 [2] [nM] |
| --- | --- | --- | --- |
| O=C(O)c1ccc([N+](=O)[O-])cn1 [Compound 8, 5-nitro picolinic acid] | – | 43 | 79 |
| O=C(O)c1cc(C(F)(F)F)ccn1 [Compound 21, 4-(trifluoromethyl) picolinic acid] | – | – | 0.08 |
| Nc1ccnc(C(=O)O)c1 [Compound 7, 4-amino picolinic acid] | – | 4 | > 100000 |
| O=C(O)c1cc(O)ccn1 [Compound 2, 4-hydroxypyridine-2-carboxylic acid] | – | – | > 300000 |
| O=C(O)[C@@H]1CCCCN1 [Compound 13, L-pipecolinic acid] | – | 0.49 | 7900 |
| O=C(O)C1=CCCCN1 [Compound 12, sodium 1,4,5,6-tetrahydropyridine-2-carboxylate] | 120000 | – | – |
| CC(=O)Nc1ccc(C(=O)O)nc1 [Compound 3, 5-acetamidopyridine-2-carboxylic acid] | – | 11 | 6200 |
| O=C(O)c1cc(=O)cc[nH]1 [Compound 24, 4-oxo-1,4-dihydropyridine-2-carboxylic acid] | – | – | 8500 |
| O=C(O)c1ccccn1 [Compound 4, picolinic acid] | – | < 0.01 | > 100000 |
| NC(=O)c1ccccn1 [Compound 10, picolinamide] | – | 22 | > 100000 |
| COc1ccnc(C(=O)O)c1 [Compound 9, 4-methoxy picolinic acid] | – | 3.2 | > 100000 |
